One assay deals with T1, human recombinant ALR2 (Homo sapiens, UniProt P15121).
T1 construct: made in house; host or cells: E. coli JM101
Description: ALR2 inhibition and determination of IC50 values (NADPH oxidation at 340 nm). It counts as biochemical. As to the method: Transformed cells were selected on LB-medium containing 50 μg/ml spectinomycin and were grown overnight at 37° C. in LB broth containing M9 medium supplemented with 1% casamino acids, […] thiamine, and 0.05% trace metals. Culture was induced by isopropyl thiogalactoside (IPTG) at the final concentration of 1 mM and grown for additional 2 hours. Cells were harvested by spinning at 2000 g for 5 min at 4° C. and subjected to osmotic fractionation by suspending them in 20% sucrose, 30 mM Tris pH 7.5, 1 mM EDTA, and then cells were incubated at 23° C. for 15 min. After incubation, cells were recovered by centrifugation for 15 min at 2000 g at 4° C. Supernatant (sucrose wash) was reserved and pellet was resuspended in 1 ml of ice cold deionized water and incubated for 10 min on ice. Again cells were recovered by centrifugation at 12000 g for 5 min at 4° C. Supernatant (water wash) was reserved and pellet was resuspended in 1 ml of ice cold deionized water. Osmotic shock extract was further subjected to purification.
Osmotic shock extract was subjected to 50-80% ammonium sulphate fractionation followed by centrifugation at 10,000 g for 20 min. The pellet obtained was resuspended in 100-200 ml of 25 mM imidazole-HCl, pH 7.4. Crude lysate was applied to chromatography column packed with PBE 94 chromatofocussing resin, which had been previously equilibrated with 25 mM imidazole. Proteins were eluted from the column with 1:8 diluted polybuffer pH 7.4. Column eluant was continuously monitored by measuring absorbance at 280 nm. Fractions containing ALR2 activity were pooled and dialyzed against 10 mM potassium phosphate buffer containing 0.5 mM EDTA. Dialyzed samples were then applied to 30×2.5 cm at hydroxylapatite column equilibrated with 10 mM potassium phosphate buffer pH 7.4 containing 0.5 mM EDTA at a flow rate of 60 ml/h. The enzyme was eluted with a linear gradient 10-300 mM potassium phosphate buffer, pH 7.0. Fractions from each purification step are subjected to SDS-PAGE. Fractions containing ALR2 activity were pooled, concentrated and stored at −20° C. until further inhibition studies.
The assay mixture in 1 ml contained 50 mM potassium phosphate buffer, pH 6.2, 0.2 mM lithium sulfate, 5 mM 2-mercaptoethanol, 1 mM DL-glyceraldehyde, 0.1 mM NADPH and recombinant ALR2. Appropriate blanks were employed for corrections. The assay mixture was incubated at 37° C. and initiated by the addition of NADPH at 37° C. The change in the absorbance at 340 nm due to NADPH oxidation was monitored in a Lamda35 spectrophotometer (Perkin-Elmer, Shelton, USA).
For inhibition studies concentrated stocks of compounds prepared in dimethyl sulfoxide were used and the final concentration of DMSO was not more than 1% of the assay volume. Various concentrations of the above mentioned analogues were added to assay mixture of ALR2 and incubated for 5 min before initiating the reaction by NADPH as described above. The percentage inhibition was calculated considering the activity in the absence of compound as 100%. The IC50 values were determined by nonlinear regression analysis of the plot of percent inhibition versus log compound concentration.

A further assay concerns human RBC. Description: Inhibition of sorbitol formation in RBC under high glucose conditions (ex vivo). The note with it: human RBC incubated under high glucose condition (55 mM), 3 hrs. The class given is cell-based. On the procedure:
In vitro incubation of RBC: Five mL blood was collected from healthy male volunteers on overnight fasting in heparinized tubes. Red blood cells were separated by centrifugation (3000 rpm/min about 30 min) and washed three times with isotonic saline at 4° C. Washed RBC were suspended in Kreb's-ringer bicarbonate buffer, pH 7.4 (pre-equilibrated with 5% CO2) and incubated at 37° C. in presence of 5% CO2 for 3 hrs under normal (5.5 mM) and high glucose (55 mM) conditions in duplicates. The effect of compounds on sorbitol accumulation was evaluated by incubating the RBC with different concentrations of compounds.
Estimation of sorbitol in RBC: At the end of incubation period, RBC was homogenized in 9 volumes of 0.8 M perchloric acid. The homogenate was centrifuged at 5,000 g at 4° C. for 10 min and the pH of the supernatant was adjusted to 3.5 with 0.5 M potassium carbonate. The sorbitol content of the supernatant was measured by fluorometric method using a spectrofluorometer (Jasco-FP-6500).

[1] abbreviates: human recombinant ALR2, read-out: IC50 value, ALR2 inhibition.
[2] abbreviates: recombinant human ALR2 in vitro, average of four experimental values, read-out: IC-50.

Results on nine molecules are retold here after patent publication US20120245357A1, “ALR2 INHIBITORS AND THEIR SYNTHESIS FROM A NATURAL SOURCE” (COUNCIL OF SCIENTIFIC & INDUSTRIAL RESEARCH, priority 2010, published 2012).

Like-named read-outs stand apart in the source and are kept apart here.

As for `COc1cc(C(CC(=O)N2CCC(c3cn(Cc4ccccc4)c4ccccc34)CC2=O)c2cn(Cc3ccccc3)c3ccccc23)cc(OC)c1OC` (stereo not shown) [3c, 1-(3-(1-benzyl-1H-indol-3-yl)-3-(3,4,5-trimethoxyphenyl)propanoyl)-4-(1-benzyl-1H-indol-3-yl)piperidin-2-one], at human recombinant ALR2 (setting [1]), the IC50 was 4 µM. In addition, in the assay with human RBC, the “% inhibition of sorbitol formation” value was 58.5%.
With `COc1cc(C(CC(=O)N2CCC=CC2=O)c2c[nH]c3ccc(Br)cc23)cc(OC)c1OC` (racemic) [2g, 1-(3-(5-bromo-1H-indol-3-yl)-3-(3,4,5-trimethoxyphenyl)propanoyl)-5,6-dihydropyridin-2(1H)-one], the IC50 at human recombinant ALR2 (SAR studies text, read-out: IC50, in-vitro aldose reductase inhibition) worked out at 60 µM; on human recombinant ALR2 (setting [1]), 15 µM.
`COc1ccc2[nH]cc(C(CC(=O)N3CCC=CC3=O)c3cc(OC)c(OC)c(OC)c3)c2c1` (stereo not shown) [2j, 1-(3-(5-methoxy-1H-indol-3-yl)-3-(3,4,5-trimethoxyphenyl)propanoyl)-5,6-dihydropyridin-2(M)-one]: the IC50 at human recombinant ALR2 (setting [1]) was determined as 8 µM. In the assay with human RBC, the “% inhibition of sorbitol formation” value amounted to 64.9%.
On to `COc1cc(C(CC(=O)O)c2c(C)[nH]c3ccccc23)cc(OC)c1OC` (stereo not shown) [compound 4, 3-(3,4,5-trimethoxyphenyl)-3-(2-methyl-1H-indol-3-yl)propanoic acid], for which the “ALR2 inhibitory activity (in words)” value on human recombinant ALR2 is “inactive”.
With `COC(=O)/C=C/c1cc(OC)c(OC)c(OC)c1` [compound 5, (E)-methyl 3-(3,4,5-trimethoxyphenyl)acrylate], at human recombinant ALR2, the “ALR2 inhibitory activity (in words)” value was “inactive”.
Turning to `COc1cc(C(CC(=O)N2CCC(c3c(C)[nH]c4ccccc34)CC2=O)c2c(C)[nH]c3ccccc23)cc(OC)c1OC` (stereo not shown) [3d, 1-(3-(3,4,5-trimethoxyphenyl)-3-(2-methyl-1H-indol-3-yl)propanoyl)-4-(2-methyl-1H-indol-3-yl)piperidin-2-one], the IC50 on human recombinant ALR2 (setting [2]) amounted to 40 µM.
`COc1cc(/C=C/C(=O)N2CCC=CC2=O)cc(OC)c1OC` [Piplartine, 5,6-dihydro-1-((E)-3-(3,4,5-trimethoxyphenyl)acryloyl)pyridin-2(1H)-one]: the IC50 at human recombinant ALR2 (setting [1]) came to 160 µM.
Still for that read-out and setting: with pipernal the figure was 310 µM.
With `COc1cc(C(CC(=O)N2CCC(c3c(-c4ccccc4)[nH]c4ccccc34)CC2=O)c2c(-c3ccccc3)[nH]c3ccccc23)cc(OC)c1OC` (stereo not shown) [3e, 1-(3-(3,4,5-trimethoxyphenyl)-3-(2-phenyl-1H-indol-3-yl)propanoyl)-4-(2-phenyl-1H-indol-3-yl)piperidin-2-one], the IC50 at human recombinant ALR2 (setting [2]) came to 4 µM. In addition, in the assay on human RBC, the “% inhibition of sorbitol formation” value is given as 68%.
